# Values of other authors, collected in patent US11807855B2, “Selection vectors and methods of selecting eukaryotic host cells” (Novartis AG, priority 2013, dated 2023).
# Tests used:
# [1] = target: wild type folate receptor alpha (Homo sapiens, UniProt P15328)
# [2] = target: A49L mutated folate receptor alpha (Homo sapiens, UniProt P15328, A74L); conditions: A49L mutant
# [3] = target: FR alpha and FR beta
# [4] = target: T1, RFC (Homo sapiens, UniProt P41440)
# T1 sequence (P41440 1-591): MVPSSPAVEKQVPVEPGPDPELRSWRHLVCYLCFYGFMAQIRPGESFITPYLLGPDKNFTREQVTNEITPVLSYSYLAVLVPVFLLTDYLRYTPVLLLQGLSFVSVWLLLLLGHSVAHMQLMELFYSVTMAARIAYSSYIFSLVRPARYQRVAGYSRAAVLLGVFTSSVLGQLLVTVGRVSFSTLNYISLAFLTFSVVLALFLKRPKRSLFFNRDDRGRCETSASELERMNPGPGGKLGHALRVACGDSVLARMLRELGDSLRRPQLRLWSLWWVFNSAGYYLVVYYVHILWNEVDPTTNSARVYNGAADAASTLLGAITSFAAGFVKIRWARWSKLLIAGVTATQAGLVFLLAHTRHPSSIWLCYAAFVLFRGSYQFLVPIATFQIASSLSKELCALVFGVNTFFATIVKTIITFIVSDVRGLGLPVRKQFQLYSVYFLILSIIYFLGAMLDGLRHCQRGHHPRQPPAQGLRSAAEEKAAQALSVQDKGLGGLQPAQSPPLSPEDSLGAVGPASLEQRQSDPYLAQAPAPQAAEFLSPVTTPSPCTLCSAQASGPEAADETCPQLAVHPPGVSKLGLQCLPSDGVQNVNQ
# wild type folate receptor alpha, sequence (P15328 25-234): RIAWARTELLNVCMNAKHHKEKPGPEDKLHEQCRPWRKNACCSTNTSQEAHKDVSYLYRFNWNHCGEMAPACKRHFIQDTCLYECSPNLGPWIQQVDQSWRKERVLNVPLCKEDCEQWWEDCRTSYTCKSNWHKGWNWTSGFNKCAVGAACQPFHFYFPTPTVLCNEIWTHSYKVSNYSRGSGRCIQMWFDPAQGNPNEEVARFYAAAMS
# A49L mutated folate receptor alpha, sequence (P15328 25-234 A74L): as the sequence (P15328 25-234) above, with A50L counted along it
compound,measurement,setting,value
"CN1c2c(nc(N)[nH]c2=O)NCC1CNc1ccc(C(=O)N[C@@H](CCC(=O)O)C(=O)O)cc1 (single isomer, unassigned) [6S diastereoisomer of 5-methyltetrahydrofolate, 5-methyltetrahydrofolate]",IC50,[1],2.9 nM
same,IC50,[2],179 nM
"Nc1nc2c(c(=O)[nH]1)CC(CCc1ccc(C(=O)N[C@@H](CCC(=O)O)C(=O)O)cc1)CN2 (stereo partly shown) [5,10-dideazatetrahydrofolic acid]",Ki,[3]; using [3H]folic acid as a substrate,0.4 to 1.3 nM
C#CCN(c1ccc(C(=O)N[C@@H](CCC(=O)N[C@H](CCC(=O)O)C(=O)O)C(=O)O)cc1)[C@H]1CCc2cc3nc(CO)[nH]c(=O)c3cc21 [BGC945],Kd,[3],1 nM
"CN(Cc1cnc2nc(N)nc(N)c2n1)c1ccc(C(=O)N[C@@H](CCC(=O)O)C(=O)O)cc1 [MTX, methotrexate]",Kd,[3],> 100 nM
Nc1nc2ncc(CNc3ccc(C(=O)N[C@@H](CCC(=O)O)C(=O)O)cc3)nc2c(=O)[nH]1 [folic acid],Kd,[3],0.1 to 1 nM
same,Km,[4],200 to 400 µM
